Test results from ChEMBL document CHEMBL5244273, “Tuberculosis: An Overview of the Immunogenic Response, Disease Progression, and Medicinal Chemistry Efforts in the Last Decade toward the Development of Potential Drugs for Extensively Drug-Resistant Tuberculosis Strains” (J Med Chem, 2021).
Values after ≈ are worked out from the molar mass of the structure shown.

System: Mycobacterium tuberculosis
Assay: Antimycobacterial activity against Mycobacterium tuberculosis H37Rv
Format: functional

Structure (SMILES)	MIC90 [µM]	MIC99 [µM]	MIC [µg/mL]	MIC50 [µg/mL]
CC(=O)N1/C(=C/c2cccc(-c3ccc(F)cc3)c2)C(=O)c2ccccc21	5.1 (≈ 1.82 µg/mL)	5.66 (≈ 2.02 µg/mL)	–	–
CCCC(=O)Nc1nc2cc(C3=NN(C(C)=O)C(c4cccs4)C3)ccc2o1 (stereo not drawn)	–	–	12.5 (≈ 31.5 µM)	–
S=c1[nH]nc(C2CCCCC2)o1	–	–	> 25	–
NOC(=O)c1c(NC(=O)c2c(F)c(F)c(F)c(F)c2F)sc2c1CCC2	–	–	10.6 (≈ 27 µM)	–
CCn1cc(C(=O)O)c(=O)c2cc(F)c(-n3cccc3)cc21 [IRLOXACIN]	–	–	–	8 (≈ 26.6 µM)
COc1ccccc1C(=O)Nc1nc2cc(C3=NN(C(C)=O)C(c4cccs4)C3)ccc2o1 (stereo not drawn)	–	–	25 (≈ 54.3 µM)	–
CC(=O)N1/C(=C/c2ccc(Oc3ccc(Cl)cc3)cc2)C(=O)c2ccccc21	6.2 (≈ 2.42 µg/mL)	8.4 (≈ 3.27 µg/mL)	–	–
Nc1ccsc1-c1nnc(S)o1	–	–	21.3 (≈ 107 µM)	–
CC(=O)N1/C(=C/c2ccc(-c3cnc4ccccc4c3)cc2)C(=O)c2ccccc21	0.649 (≈ 0.253 µg/mL)	0.736 (≈ 0.287 µg/mL)	–	–
CC(=O)N1/C(=C/c2cccc(-c3ccccc3)c2)C(=O)c2ccccc21	4.49 (≈ 1.52 µg/mL)	4.94 (≈ 1.68 µg/mL)	–	–
CC(=O)N1N=C(c2ccc3oc(NC(=O)C(C)C)nc3c2)CC1c1cccs1 (stereo not drawn)	–	–	25 (≈ 63.1 µM)	–
Sc1nnc(-c2ccc(Cl)cc2)o1	–	–	5.3 (≈ 24.9 µM)	–
Sc1nnc(-c2ccc(-c3ccccc3)cc2)o1	–	–	> 25	–
CC(=O)N1N=C(c2ccc3oc(N)nc3c2)CC1c1cccs1 (stereo not drawn)	–	–	6.25 (≈ 19.1 µM)	–
CC(=O)N1N=C(c2ccc3oc(-c4cccnc4)nc3c2)CC1c1cccs1 (stereo not drawn)	–	–	25 (≈ 64.4 µM)	–
CC(=O)N1/C(=C/c2ccc(OCc3ccccc3)cc2)C(=O)c2ccccc21	1.89 (≈ 0.698 µg/mL)	2.58 (≈ 0.953 µg/mL)	–	–
COC(=O)c1c(NC(=O)c2c(F)c(F)c(F)c(F)c2F)sc2c1CCC2	–	–	2.1 (≈ 5.37 µM)	–
Sc1nnc(-c2ccccc2Br)o1	–	–	> 25	–
CC(=O)N1N=C(c2ccc3oc(C(=O)c4ccccc4)nc3c2)CC1c1cccs1 (stereo not drawn)	–	–	50 (≈ 120 µM)	–
COc1ccccc1-c1nc2cc(C3=NN(C(C)=O)C(c4cccs4)C3)ccc2o1 (stereo not drawn)	–	–	25 (≈ 59.9 µM)	–
COc1ccc(-c2nnc(S)o2)cc1	–	–	20.8 (≈ 99.9 µM)	–
CC(=O)N1N=C(c2ccc3oc(NC(=O)c4ccccc4Cl)nc3c2)CC1c1cccs1 (stereo not drawn)	–	–	25 (≈ 53.8 µM)	–

Structure (SMILES)	MIC90 [µM]	MIC99 [µM]	MIC [µg/mL]	MIC50 [µg/mL]
Cc1c(C(N)=O)sc(NC(=O)c2c(F)c(F)c(F)c(F)c2F)c1C(=O)O	–	–	78.4 (≈ 199 µM)	–
CC(=O)N1/C(=C/c2cccc(-c3ccc(C(F)(F)F)cc3)c2)C(=O)c2ccccc21	11.6 (≈ 4.73 µg/mL)	17.5 (≈ 7.13 µg/mL)	–	–
CC(=O)N1N=C(c2ccc3oc(-c4ccccc4Cl)nc3c2)CC1c1cccs1 (stereo not drawn)	–	–	25 (≈ 59.3 µM)	–
Fc1ccc(-c2nnc(S)o2)cc1	–	–	> 25	–
CCc1c(C)sc(NC(=O)c2c(F)c(F)c(F)c(F)c2F)c1C(=O)OC(C)C	–	–	1 (≈ 2.37 µM)	–
CC(=O)N1N=C(c2ccc3oc(S)nc3c2)CC1c1cccs1 (stereo not drawn)	–	–	6.25 (≈ 18.2 µM)	–
CC(=O)N1/C(=C/c2ccc(-c3ccc(OC(F)(F)F)cc3)cc2)C(=O)c2cc(Cl)ccc21	> 20	> 20	–	–
COC(=O)c1c(NC(=O)c2ccc(C)cc2)sc2c1CCCCC2	–	–	> 20.2	–
O=[N+]([O-])c1ccc(-c2nnc(S)o2)cc1	–	–	3.1 (≈ 13.9 µM)	–
CC(=O)N1N=C(c2ccc3oc(-c4ccccc4)nc3c2)CC1c1cccs1 (stereo not drawn)	–	–	25 (≈ 64.5 µM)	–
CC(=O)N1/C(=C/c2ccc(-c3ccc(C(F)(F)F)cc3)cc2)C(=O)c2ccccc21	2.65 (≈ 1.08 µg/mL)	4.3 (≈ 1.75 µg/mL)	–	–
Sc1nnc(-c2ccccc2Cl)o1	–	–	21.2 (≈ 99.7 µM)	–
NC(=O)N1N=C(c2ccc3oc(N)nc3c2)CC1c1cccs1 (stereo not drawn)	–	–	6.25 (≈ 19.1 µM)	–
Sc1nnc(-c2ccc(Br)cc2)o1	–	–	> 25	–
COC(=O)c1c(NC(=O)c2c(F)c(F)c(F)c(F)c2F)sc2c1CCCCC2	–	–	1 (≈ 2.38 µM)	–
COC(=O)c1c(NC(=O)c2ccccc2F)sc2c1CCCCC2	–	–	20.2 (≈ 58.1 µM)	–
CC(=O)N1N=C(c2ccc3oc(NC(=O)c4cccc(Cl)c4)nc3c2)CC1c1cccs1 (stereo not drawn)	–	–	12.5 (≈ 26.9 µM)	–
CC(=O)N1N=C(c2ccc3oc(NC(=O)c4ccccc4)nc3c2)CC1c1cccs1 (stereo not drawn)	–	–	6.25 (≈ 14.5 µM)	–
Oc1cc(O)cc(-c2nnc(S)o2)c1	–	–	21 (≈ 99.9 µM)	–
CC(=O)N1/C(=C/c2ccc(Oc3ccc(Cl)cc3)cc2)C(=O)c2cc(Cl)ccc21	6.02 (≈ 2.55 µg/mL)	6.87 (≈ 2.91 µg/mL)	–	–
CC(=O)N1/C(=C/c2ccc(-c3ccccc3)cc2)C(=O)c2cc(C)ccc21	> 20	> 20	–	–
